# Tested on: 898857-211-R-J1-PDC complex spheroids, growth % test/control
# Assay: Anticancer human tumor 898857-211-R-J1-PDC patient-derived melanoma cell line growth inhibition [RAS]
# Conditions: for IC50: curve of first compound; for viability, T/C: stronger effect = lower value
# Outline: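 Multi-cell-type spheroids: tumor cells plus HUVEC endothelial cells and mesenchymal stem cells. RAS-pathway inhibitors were combined with targeted agents, each dosed in half-log steps down from clinical Cmax, or from 10 microM when Cmax was unknown.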
# 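Note: spheroids exposed to compound for seven days before readout.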
# 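Throughout, for viability, T/C: 100% = DMSO vehicle control wells.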
structure (smiles),measurement,setting,value
C=CC(=O)N1CCN(c2nc(OCC3CCCN3C)nc3c(F)c(-c4nc(N)cc(C)c4C(F)(F)F)c(Cl)cc23)C(C)C1 (centres undefined) + C#Cc1c(F)ccc2cc(O)cc(-c3ncc4c(N5CC6CCC(C5)N6)nc(OCC56CCCN5CC(F)C6)nc4c3F)c12,IC50,second compound 0.0316 µM,> 1000 nM
same,IC50,second compound 0.1 µM,> 1000 nM
same,IC50,second compound 0.316 µM,> 1000 nM
same,IC50,second compound 1 µM,> 1000 nM
same,IC50,second compound 3.16 µM,> 1000 nM
same,IC50,second compound 10 µM,< 3.16 nM
same,"viability, T/C","second compound 0.0316 µM, first compound 0.00316 µM",107%
same,"viability, T/C","second compound 0.0316 µM, first compound 0.01 µM",92.9%
same,"viability, T/C","second compound 0.0316 µM, first compound 0.0316 µM",103%
same,"viability, T/C","second compound 0.0316 µM, first compound 0.1 µM",103%
same,"viability, T/C","second compound 0.0316 µM, first compound 0.316 µM",117%
same,"viability, T/C","second compound 0.0316 µM, first compound 1 µM",118%
same,"viability, T/C","second compound 0.1 µM, first compound 0.00316 µM",109%
same,"viability, T/C","second compound 0.1 µM, first compound 0.01 µM",107%
same,"viability, T/C","second compound 0.1 µM, first compound 0.0316 µM",109%
same,"viability, T/C","second compound 0.1 µM, first compound 0.1 µM",105%
same,"viability, T/C","second compound 0.1 µM, first compound 0.316 µM",126%
same,"viability, T/C","second compound 0.1 µM, first compound 1 µM",117%
same,"viability, T/C","second compound 0.316 µM, first compound 0.00316 µM",95.8%
same,"viability, T/C","second compound 0.316 µM, first compound 0.01 µM",91.4%
same,"viability, T/C","second compound 0.316 µM, first compound 0.0316 µM",100%
same,"viability, T/C","second compound 0.316 µM, first compound 0.1 µM",96%
same,"viability, T/C","second compound 0.316 µM, first compound 0.316 µM",114%
same,"viability, T/C","second compound 0.316 µM, first compound 1 µM",129%
same,"viability, T/C","second compound 1 µM, first compound 0.00316 µM",104%
same,"viability, T/C","second compound 1 µM, first compound 0.01 µM",102%
same,"viability, T/C","second compound 1 µM, first compound 0.0316 µM",101%
same,"viability, T/C","second compound 1 µM, first compound 0.1 µM",104%
same,"viability, T/C","second compound 1 µM, first compound 0.316 µM",105%
same,"viability, T/C","second compound 1 µM, first compound 1 µM",98.9%
same,"viability, T/C","second compound 3.16 µM, first compound 0.00316 µM",99.4%
same,"viability, T/C","second compound 3.16 µM, first compound 0.01 µM",93.5%
same,"viability, T/C","second compound 3.16 µM, first compound 0.0316 µM",86.6%
same,"viability, T/C","second compound 3.16 µM, first compound 0.1 µM",106%
same,"viability, T/C","second compound 3.16 µM, first compound 0.316 µM",116%
same,"viability, T/C","second compound 3.16 µM, first compound 1 µM",87.3%
same,"viability, T/C","second compound 10 µM, first compound 0.00316 µM",56.5%
same,"viability, T/C","second compound 10 µM, first compound 0.01 µM",39.5%
same,"viability, T/C","second compound 10 µM, first compound 0.0316 µM",41.1%
same,"viability, T/C","second compound 10 µM, first compound 0.1 µM",50.5%
same,"viability, T/C","second compound 10 µM, first compound 0.316 µM",21.3%
same,"viability, T/C","second compound 10 µM, first compound 1 µM",1.25%
CC1(C)CCC(Nc2ncc(C(F)(F)F)c(-c3c[nH]c4c(P(C)(C)=O)c(C#N)ccc34)n2)CN1 (centres undefined) + C#Cc1c(F)ccc2cc(O)cc(-c3ncc4c(N5CC6CCC(C5)N6)nc(OCC56CCCN5CC(F)C6)nc4c3F)c12,IC50,second compound 0.0316 µM,4.05 nM
same,IC50,second compound 0.1 µM,5.69 nM
same,IC50,second compound 0.316 µM,5.3 nM
same,IC50,second compound 1 µM,5.82 nM
same,IC50,second compound 3.16 µM,5.41 nM
same,IC50,second compound 10 µM,2.06 nM
same,"viability, T/C","second compound 0.0316 µM, first compound 0.000949 µM",99.2%
same,"viability, T/C","second compound 0.0316 µM, first compound 0.003 µM",56.7%
same,"viability, T/C","second compound 0.0316 µM, first compound 0.00949 µM",30.9%
same,"viability, T/C","second compound 0.0316 µM, first compound 0.03 µM",22%
same,"viability, T/C","second compound 0.0316 µM, first compound 0.0949 µM",19.6%
same,"viability, T/C","second compound 0.0316 µM, first compound 0.3 µM",17.6%
same,"viability, T/C","second compound 0.1 µM, first compound 0.000949 µM",92.2%
same,"viability, T/C","second compound 0.1 µM, first compound 0.003 µM",66.7%
same,"viability, T/C","second compound 0.1 µM, first compound 0.00949 µM",35.4%
same,"viability, T/C","second compound 0.1 µM, first compound 0.03 µM",26.7%
same,"viability, T/C","second compound 0.1 µM, first compound 0.0949 µM",18.4%
same,"viability, T/C","second compound 0.1 µM, first compound 0.3 µM",17.5%
same,"viability, T/C","second compound 0.316 µM, first compound 0.000949 µM",91.3%
same,"viability, T/C","second compound 0.316 µM, first compound 0.003 µM",63.7%
same,"viability, T/C","second compound 0.316 µM, first compound 0.00949 µM",34.5%
same,"viability, T/C","second compound 0.316 µM, first compound 0.03 µM",28.1%
same,"viability, T/C","second compound 0.316 µM, first compound 0.0949 µM",20.4%
same,"viability, T/C","second compound 0.316 µM, first compound 0.3 µM",18.2%
same,"viability, T/C","second compound 1 µM, first compound 0.000949 µM",86.7%
same,"viability, T/C","second compound 1 µM, first compound 0.003 µM",66.1%
same,"viability, T/C","second compound 1 µM, first compound 0.00949 µM",37.7%
same,"viability, T/C","second compound 1 µM, first compound 0.03 µM",24.4%
same,"viability, T/C","second compound 1 µM, first compound 0.0949 µM",20.6%
same,"viability, T/C","second compound 1 µM, first compound 0.3 µM",17.1%
same,"viability, T/C","second compound 3.16 µM, first compound 0.000949 µM",87%
same,"viability, T/C","second compound 3.16 µM, first compound 0.003 µM",64.4%
same,"viability, T/C","second compound 3.16 µM, first compound 0.00949 µM",34.7%
same,"viability, T/C","second compound 3.16 µM, first compound 0.03 µM",28.9%
same,"viability, T/C","second compound 3.16 µM, first compound 0.0949 µM",19.7%
same,"viability, T/C","second compound 3.16 µM, first compound 0.3 µM",19.1%
same,"viability, T/C","second compound 10 µM, first compound 0.000949 µM",68.7%
same,"viability, T/C","second compound 10 µM, first compound 0.003 µM",40.4%
same,"viability, T/C","second compound 10 µM, first compound 0.00949 µM",25.2%
same,"viability, T/C","second compound 10 µM, first compound 0.03 µM",24.3%
same,"viability, T/C","second compound 10 µM, first compound 0.0949 µM",15.3%
same,"viability, T/C","second compound 10 µM, first compound 0.3 µM",13.2%
